The source made the active and inactive calls. No cut-off for these calls is given here.
What was measured:
Type in all cases: protein assay
[1] = target: T1, Alpha-1,2-mannosidase (BT_2111) (Bacteroides thetaiotaomicron) (UniProt Q8A5X5); assay: Activity of Bacteroides thetaiotaomicron GH92 alpha-mannosidase GH92 alpha-mannosidase 2111 assessed as mannose release at 1 mM after 16 hrs by HPLC relative to untreated control after 16 hrs by HPLC
T1 sequence (whole entry): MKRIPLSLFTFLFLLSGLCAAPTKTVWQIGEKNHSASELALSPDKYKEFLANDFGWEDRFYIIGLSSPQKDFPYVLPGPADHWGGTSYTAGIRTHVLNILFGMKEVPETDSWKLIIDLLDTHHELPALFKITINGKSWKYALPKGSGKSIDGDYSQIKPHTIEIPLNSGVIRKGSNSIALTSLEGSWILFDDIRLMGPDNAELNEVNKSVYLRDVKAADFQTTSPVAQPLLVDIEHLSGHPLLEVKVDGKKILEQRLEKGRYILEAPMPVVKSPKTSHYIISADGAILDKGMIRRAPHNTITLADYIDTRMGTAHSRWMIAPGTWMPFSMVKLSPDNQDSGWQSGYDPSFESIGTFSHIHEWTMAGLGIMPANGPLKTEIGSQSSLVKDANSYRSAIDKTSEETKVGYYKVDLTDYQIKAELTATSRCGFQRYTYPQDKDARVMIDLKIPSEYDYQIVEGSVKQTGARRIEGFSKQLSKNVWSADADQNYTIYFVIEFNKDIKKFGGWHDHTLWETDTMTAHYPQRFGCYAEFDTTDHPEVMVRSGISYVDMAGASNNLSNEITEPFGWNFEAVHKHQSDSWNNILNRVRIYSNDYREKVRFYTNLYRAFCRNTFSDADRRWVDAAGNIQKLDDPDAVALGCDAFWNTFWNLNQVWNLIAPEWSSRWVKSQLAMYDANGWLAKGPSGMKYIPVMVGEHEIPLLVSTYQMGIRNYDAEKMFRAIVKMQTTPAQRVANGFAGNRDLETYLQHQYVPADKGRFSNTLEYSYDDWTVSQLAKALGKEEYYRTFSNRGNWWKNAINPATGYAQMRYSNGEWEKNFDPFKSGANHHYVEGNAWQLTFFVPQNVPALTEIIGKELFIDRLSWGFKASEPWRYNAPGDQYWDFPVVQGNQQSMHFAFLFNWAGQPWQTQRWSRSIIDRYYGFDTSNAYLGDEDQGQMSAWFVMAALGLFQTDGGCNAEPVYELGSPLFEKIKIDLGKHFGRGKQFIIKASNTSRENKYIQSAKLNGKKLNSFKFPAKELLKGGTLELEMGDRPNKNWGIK

[2] = target: T2, Alpha-1,2-mannosidase (BT_2199) (Bacteroides thetaiotaomicron) (UniProt Q8A5N9); assay: Activity of Bacteroides thetaiotaomicron GH92 alpha-mannosidase GH92 alpha-mannosidase 2199 assessed as mannose release at 1 mM after 16 hrs by HPLC relative to untreated control after 16 hrs by HPLC
T2 sequence (whole entry): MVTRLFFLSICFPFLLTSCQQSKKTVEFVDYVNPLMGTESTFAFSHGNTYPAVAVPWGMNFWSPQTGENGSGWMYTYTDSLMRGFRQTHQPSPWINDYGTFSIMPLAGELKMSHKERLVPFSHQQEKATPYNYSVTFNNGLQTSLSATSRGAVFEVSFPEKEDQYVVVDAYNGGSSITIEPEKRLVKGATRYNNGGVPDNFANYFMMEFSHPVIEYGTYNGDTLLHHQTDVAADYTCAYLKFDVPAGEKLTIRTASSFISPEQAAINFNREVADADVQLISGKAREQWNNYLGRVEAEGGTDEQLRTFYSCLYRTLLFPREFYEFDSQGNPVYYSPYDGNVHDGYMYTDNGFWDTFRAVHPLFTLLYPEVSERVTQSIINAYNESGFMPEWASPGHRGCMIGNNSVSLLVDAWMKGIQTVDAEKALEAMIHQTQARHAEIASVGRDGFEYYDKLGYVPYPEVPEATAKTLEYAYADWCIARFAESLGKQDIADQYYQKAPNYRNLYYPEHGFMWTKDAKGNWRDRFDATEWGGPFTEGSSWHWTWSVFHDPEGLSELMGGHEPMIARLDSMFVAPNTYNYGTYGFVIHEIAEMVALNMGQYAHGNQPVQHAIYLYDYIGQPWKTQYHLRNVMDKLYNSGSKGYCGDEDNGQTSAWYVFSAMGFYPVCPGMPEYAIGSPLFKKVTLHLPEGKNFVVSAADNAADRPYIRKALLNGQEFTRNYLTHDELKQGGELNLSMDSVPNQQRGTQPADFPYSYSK

[3] = target: T3, Alpha-1,2-mannosidase (BT_4092) (Bacteroides thetaiotaomicron) (UniProt Q8A0C9); assay: Activity of Bacteroides thetaiotaomicron GH92 alpha-mannosidase GH92 alpha-mannosidase 4092 assessed as mannose release at 1 mM after 16 hrs by HPLC relative to untreated control after 16 hrs by HPLC
T3 sequence (whole entry): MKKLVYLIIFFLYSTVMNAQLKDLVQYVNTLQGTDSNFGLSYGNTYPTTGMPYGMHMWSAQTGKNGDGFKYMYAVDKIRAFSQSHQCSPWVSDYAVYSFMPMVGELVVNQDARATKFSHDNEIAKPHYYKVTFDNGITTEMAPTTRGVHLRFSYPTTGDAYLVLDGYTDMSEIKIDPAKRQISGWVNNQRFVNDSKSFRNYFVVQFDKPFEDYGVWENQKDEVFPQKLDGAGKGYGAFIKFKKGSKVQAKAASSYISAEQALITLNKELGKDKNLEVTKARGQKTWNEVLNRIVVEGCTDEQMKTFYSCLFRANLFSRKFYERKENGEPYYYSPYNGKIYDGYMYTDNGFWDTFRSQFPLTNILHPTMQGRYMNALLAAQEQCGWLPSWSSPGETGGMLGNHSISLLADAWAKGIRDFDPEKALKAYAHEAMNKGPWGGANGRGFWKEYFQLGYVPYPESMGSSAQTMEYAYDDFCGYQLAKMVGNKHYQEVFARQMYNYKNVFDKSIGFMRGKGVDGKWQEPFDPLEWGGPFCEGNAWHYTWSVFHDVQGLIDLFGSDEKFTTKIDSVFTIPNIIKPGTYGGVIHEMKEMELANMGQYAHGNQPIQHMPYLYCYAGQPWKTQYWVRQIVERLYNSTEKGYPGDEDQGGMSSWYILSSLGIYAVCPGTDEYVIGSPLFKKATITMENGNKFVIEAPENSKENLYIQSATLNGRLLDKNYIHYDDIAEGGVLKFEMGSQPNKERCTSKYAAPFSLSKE

**Q.** What does the source list for `OC[C@H]1O[C@H](O[C@H]2[C@@H](O)[C@H](O)[C@@H](CO)O[C@@H]2O)[C@@H](O)[C@@H](O)[C@@H]1O`?
**A.** Activity [1]: inactive; Activity [2]: 100%; Activity [3]: 100%

**Q.** For `OC[C@H]1O[C@H](OC[C@H]2O[C@H](O)[C@@H](O)[C@@H](O)[C@@H]2O)[C@@H](O)[C@@H](O)[C@@H]1O`, which Activity [1] is on record?
**A.** Its Activity is “inactive”.

**Q.** What about the Activity [2] of the same compound?
**A.** The Activity was “inactive”.

**Q.** What about the Activity [3] of the same compound?
**A.** The Activity was “inactive”.

**Q.** What does the source list for `OC[C@H]1O[C@H](O[C@@H]2[C@H](O)[C@@H](O)O[C@H](CO)[C@H]2O)[C@@H](O)[C@@H](O)[C@@H]1O`?
**A.** Activity [1]: inactive; Activity [2]: inactive; Activity [3]: 0.34%

**Q.** What does the source list for `OC[C@H]1O[C@H](O[C@H]2[C@H](O)[C@H](O)[C@@H](O)O[C@@H]2CO)[C@@H](O)[C@@H](O)[C@@H]1O`?
**A.** Activity [1]: inactive; Activity [2]: 0.12%; Activity [3]: 0.73%

From ChEMBL document CHEMBL1250451, “Mechanistic insights into a Ca2+-dependent family of alpha-mannosidases in a human gut symbiont” (Nat Chem Biol, 2010)
